Data: patent publication US12295936B2, “Immunomodulating urea azalides” (Zoetis Services LLC, priority 2020, dated 2025)
Where two headings read alike, the source gives them in different places.

Experiments:
P. multocida 46572 = assay: In vivo mouse lung infection challenge model (murine efficacy); design: species or system CD-1 female mice; conditions: 20 mg/kg subcutaneous, P. multocida challenge; harmonized against the comparative vehicle survival rate
Protocol: The challenge organism was P. multocida 46572. Target challenge concentration was 5×10^2 CFU/mouse. Isolated colonies from overnight growth (37° C. with 5% CO2) on trypticase soy agar (TSA II) blood plates were transferred to room temperature Brain Heart Infusion Broth (BHIB). The broth culture was incubated 3.5-4 hours to approximately mid-log phase of growth, as measured by forward light scatter at 600 nm (OD600, 0.200). The culture was centrifuged to collect the bacterial pellet. The pellet was re-suspended in BHIB and adjusted to provide an approximate concentration of 2.7 log^10 colony forming units (CFU) in 0.04 mL at the highest concentration. The challenge inoculum concentration was confirmed by serial dilutions of the inoculum for CFU enumeration. On Day −5, CD-1 female mice were received. Mice were given standard rodent diet and water ad libitum. On Day 0, bacterial inoculum (0.04 mL) was administered to each mouse (n=36) intranasally. Compounds of the invention were dosed at 20 mg/kg (0.1 mL) in a buffered (˜pH 5.4) propylene glycol, monothioglycerol and water solution by subcutaneous injection. Animals were observed from Days 1-10. The study was terminated on Day 10. In addition, some treatment groups were sampled at 6, 24, and 48 hours post bacterial challenge for RNA sequence analysis of lung tissue.
The murine efficacy model (P. multocida challenge) was optimized, and the treatment group size was powered to be able to observe statistically significant improvement of survival to expected ranges for immunomodulatory compounds. The experimental design was a randomized complete block design. Mice were individually identified and treatment groups comingled within a cage, with every treatment group equally represented across cages. Mortality was the primary variable. Mortality data was analyzed using a generalized mixed model with fixed effect of treatment and random effect of block. Survival time was also analyzed using the SAS PHREG (survival analysis) procedure to examine whether there were significant differences between treatment groups and the control group. Numerous compounds of the invention and M9 (positive control) were tested in this model at a dose of 20 mg/kg. Typical percent survival for no treatment control is in the range of 0-20% based on study to study variation in challenge inoculum and rate of infection. […] Mouse survival for M9 was about 90-100%, further supporting its antibacterial properties against the bacterial strain (Table 3). Survival values presented are harmonized against the comparative vehicle survival rate.

IL-6 = assay: LPS-stimulated whole bovine blood assay, MSD cytokine detection; type: cell-based; conditions: read-out: IL-6 (IC50 μM)
Source text: In order to correlate RNA sequencing data to cytokine changes the whole blood assay was utilized. […] The enhancement result represents an overall stimulation of cytokine levels due to cellular stress or potential toxicity with increasing concentrations of the compound, representing a typical bell shape response curve for immunomodulatory activity.

IL-1β = assay: as above; type: cell-based; conditions: overstimulation of IL-1β, LPS-stimulated bovine whole blood
TNF-α = assay: as above; type: cell-based; conditions: Bos taurus, read-out: TNF-α (IC50 μM)
[1] = tested on: BRD pathogens, M. haemolytica and P. multocida; assay: MIC screening panel of BRD pathogens (antibacterial / non-antibacterial); conditions: read-out: antibacterial / non-antibacterial (MIC for the BRD pathogens)
[2] = LPS-stimulated bovine whole blood
[3] = Bos taurus, LPS-stimulated bovine whole blood

CC[C@H]1OC(=O)[C@H](C)[C@@H](O[C@H]2C[C@@](C)(OC)[C@@H](O)[C@H](C)O2)[C@H](C)[C@@H](O[C@@H]2O[C@H](C)C[C@H](N(C)C(=O)N(C)c3ccc(C(F)(F)F)cc3)[C@H]2O)[C@](C)(O)C[C@@H](C)CN[C@H](C)[C@@H](O)[C@]1(C)O [Example B-2, 1-((2S,3R,4S,6R)-2-(((2R,3S,4R,5R,8R,10R,11R,12S,13S,4R)-2-ethyl-3,4,10-trihydroxy-13-(((2R,4R,5S,6S)-5-hydroxy-4-methoxy-4,6-dimethyltetrahydro-2H-pyran-2-yl)oxy)-3,5,8,10,12,14-hexamethyl-15-oxo-1-oxa-6-azacyclopentadecan-11-yl)oxy)-3-hydroxy-6-methyltetrahydro-2H-pyran-4-yl)-1,3-dimethyl-3-(4-(trifluoromethyl)phenyl)urea]
Mouse Murine Percent Survival (P. multocida 46572): 28% | IC50 (IL-6; [2]): 52 µM | IL-1β OS of LPS (IL-1β): 40 µM

CC[C@H]1OC(=O)[C@H](C)[C@@H](O[C@H]2C[C@@](C)(OC)[C@@H](O)[C@H](C)O2)[C@H](C)[C@@H](O[C@@H]2O[C@H](C)C[C@H](N(C)C(=O)N(C)c3ccc(C(F)(F)F)cc3)[C@H]2O)[C@](C)(O)C[C@@H](C)CN(C)[C@H](C)[C@@H](O)[C@]1(C)O [Example B-6, 1-((2S,3R,4S,6R)-2-(((2R,3S,4R,5R,8R,10R,11R,12S,13S,14R)-2-ethyl-3,4,10-trihydroxy-13-(((2R,4R,5S,6S)-5-hydroxy-4-methoxy-4,6-dimethyltetrahydro-2H-pyran-2-yl)oxy)-3,5,6,8,10,12,14-heptamethyl-15-oxo-1-oxa-6-azacyclopentadecan-11-yl)oxy)-3-hydroxy-6-methyltetrahydro-2H-pyran-4-yl)-1,3-dimethyl-3-(4-(trifluoromethyl)phenyl)urea]
Mouse Murine Percent Survival (P. multocida 46572): 1% | IC50 (IL-6; [3]): 41 µM | IL-1β OS of LPS (IL-1β): 40 µM | IC50 (TNF-α; [2]): 12 µM

CCCNC[C@]1(O)[C@H](C)O[C@@H](O[C@H]2[C@H](C)[C@@H](O[C@@H]3O[C@H](C)C[C@H](N(C)C(=O)Nc4cccnc4)[C@H]3O)[C@](C)(O)C[C@@H](C)CN[C@H](C)[C@@H](O)[C@](C)(O)[C@@H](CC)OC(=O)[C@@H]2C)C[C@@]1(C)OC [Example H-72, 1-((2S,3R,4S,6R)-2-(((2R,3S,4R,5R,8R,10R,11R,12S,13S,14R)-2-ethyl-3,4,10-trihydroxy-13-(((2R,4R,5S,6S)-5-hydroxy-4-methoxy-4,6-dimethyl-5-((propylamino)methyl)tetrahydro-2H-pyran-2-yl)oxy)-3,5,8,10,12,14-hexamethyl-15-oxo-1-oxa-6-azacyclopentadecan-11-yl)oxy)-3-hydroxy-6-methyltetrahydro-2H-pyran-4-yl)-1-methyl-3-(pyridin-3-yl)urea]
Mouse Murine Percent Survival (P. multocida 46572): 4% | IC50 (IL-6; [3]): > 500 µM | IL-1β OS of LPS (IL-1β): >500 µM | IC50 (TNF-α; [2]): > 500 µM

CCCNC[C@]1(O)[C@H](C)O[C@@H](O[C@H]2[C@H](C)[C@@H](O[C@@H]3O[C@H](C)C[C@H](N(C)C(=O)Nc4cnn(C)c4)[C@H]3O)[C@](C)(O)C[C@@H](C)CN[C@H](C)[C@@H](O)[C@](C)(O)[C@@H](CC)OC(=O)[C@@H]2C)C[C@@]1(C)OC [Example H-74, 1-((2S,3R,4S,6R)-2-(((2R,3S,4R,5R,8R,10R,11R,12S,13S,14R)-2-ethyl-3,4,10-trihydroxy-13-(((2R,4R,5S,6S)-5-hydroxy-4-methoxy-4,6-dimethyl-5-((propylamino)methyl)tetrahydro-2H-pyran-2-yl)oxy)-3,5,8,10,12,14-hexamethyl-15-oxo-1-oxa-6-azacyclopentadecan-11-yl)oxy)-3-hydroxy-6-methyltetrahydro-2H-pyran-4-yl)-1-methyl-3-(1-methyl-1H-pyrazol-4-yl)urea]
Mouse Murine Percent Survival (P. multocida 46572): 11% | IC50 (IL-6; Bos taurus): > 500 µM | IL-1β OS of LPS (IL-1β): >500 µM | IC50 (TNF-α): ~600 µM

CCCNC[C@]1(O)[C@H](C)O[C@@H](O[C@H]2[C@H](C)[C@@H](O[C@@H]3O[C@H](C)C[C@H](N(C)C(=O)Nc4ccc(F)cc4)[C@H]3O)[C@](C)(O)C[C@@H](C)CN[C@H](C)[C@@H](O)[C@](C)(O)[C@@H](CC)OC(=O)[C@@H]2C)C[C@@]1(C)OC [Example H-83, 1-((2S,3R,4S,6R)-2-(((2R,3S,4R,5R,8R,10R,11R,12S,13S,14R)-2-ethyl-3,4,10-trihydroxy-13-(((2R,4R,5S,6S)-5-hydroxy-4-methoxy-4,6-dimethyl-5-((propylamino)methyl)tetrahydro-2H-pyran-2-yl)oxy)-3,5,8,10,12,14-hexamethyl-15-oxo-1-oxa-6-azacyclopentadecan-11-yl)oxy)-3-hydroxy-6-methyltetrahydro-2H-pyran-4-yl)-3-(4-fluorophenyl)-1-methylurea]
MIC [1]: > 64 µg/mL | Mouse Murine Percent Survival (P. multocida 46572): 11% | IL-1β OS of LPS (IL-1β): 80 µM | IC50 (TNF-α; [2]): 350 µM

CCCNC(=O)N(C)[C@H]1C[C@@H](C)O[C@@H](O[C@@H]2[C@@H](C)[C@H](O[C@H]3C[C@@](C)(OC)[C@](O)(CNc4ccc(C(F)(F)F)cc4)[C@H](C)O3)[C@@H](C)C(=O)O[C@H](CC)[C@@](C)(O)[C@H](O)[C@@H](C)NC[C@H](C)C[C@@]2(C)O)[C@@H]1O [Example H-95, 1-((2S,3R,4S,6R)-2-(((2R,3S,4R,5R,8R,10R,11R,12S,13S,14R)-2-ethyl-3,4,10-trihydroxy-13-(((2R,4R,5S,6S)-5-hydroxy-4-methoxy-4,6-dimethyl-5-(((4-(trifluoromethyl)phenyl)amino)methyl)tetrahydro-2H-pyran-2-yl)oxy)-3,5,8,10,12,14-hexamethyl-15-oxo-1-oxa-6-azacyclopentadecan-11-yl)oxy)-3-hydroxy-6-methyltetrahydro-2H-pyran-4-yl)-1-methyl-3-propylurea]
MIC [1]: > 64 µg/mL | Mouse Murine Percent Survival (P. multocida 46572): 39% | IL-1β OS of LPS (IL-1β): 13 µM | IC50 (TNF-α; [2]): 10 µM

CC[C@H]1OC(=O)[C@H](C)[C@@H](O[C@H]2C[C@@](C)(OC)[C@](O)(CN3CCN(C)CC3)[C@H](C)O2)[C@H](C)[C@@H](O[C@@H]2O[C@H](C)C[C@H](N(C)C(=O)NC(C)(C)C)[C@H]2O)[C@](C)(O)C[C@@H](C)CN[C@H](C)[C@@H](O)[C@]1(C)O [Example J-3, 3-(tert-butyl)-1-((2S,3R,4S,6R)-2-(((2R,3S,4R,5R,8R,10R,11R,12S,13S,14R)-2-ethyl-3,4,10-trihydroxy-13-(((2R,4R,5S,6S)-5-hydroxy-4-methoxy-4,6-dimethyl-5-((4-methylpiperazin-1-yl)methyl)tetrahydro-2H-pyran-2-yl)oxy)-3,5,8,10,12,14-hexamethyl-15-oxo-1-oxa-6-azacyclopentadecan-11-yl)oxy)-3-hydroxy-6-methyltetrahydro-2H-pyran-4-yl)-1-methylurea]
Mouse Murine Percent Survival (P. multocida 46572): 25% | IC50 (IL-6; [3]): 225 µM | IL-1β OS of LPS (IL-1β): 200 µM | IC50 (TNF-α; [2]): 200 µM

CC[C@H]1OC(=O)[C@H](C)[C@@H](O[C@H]2C[C@@](C)(OC)[C@](O)(CN3CCN(C)CC3)[C@H](C)O2)[C@H](C)[C@@H](O[C@@H]2O[C@H](C)C[C@H](N(C)C(=O)Nc3ccccc3)[C@H]2O)[C@](C)(O)C[C@@H](C)CN[C@H](C)[C@@H](O)[C@]1(C)O [Example J-7, 1-((2S,3R,4S,6R)-2-(((2R,3S,4R,5R,8R,10R,11R,12S,13S,14R)-2-ethyl-3,4,10-trihydroxy-13-(((2R,4R,5S,6S)-5-hydroxy-4-methoxy-4,6-dimethyl-5-((4-methylpiperazin-1-yl)methyl)tetrahydro-2H-pyran-2-yl)oxy)-3,5,8,10,12,14-hexamethyl-15-oxo-1-oxa-6-azacyclopentadecan-11-yl)oxy)-3-hydroxy-6-methyltetrahydro-2H-pyran-4-yl)-1-methyl-3-phenylurea]
Mouse Murine Percent Survival (P. multocida 46572): 39% | IC50 (IL-6; [3]): > 500 µM | IL-1β OS of LPS (IL-1β): 200 µM | IC50 (TNF-α; [2]): 200 µM
